We go through four molecules from US7741303B2, “Stimulation of cellular regeneration and differentiation in the inner ear” (Sound Pharmaceuticals Incorporated, priority 1998, dated 2010).

Data set [1] deals with supporting cells of wild type organ of Corti explants. As to the kind of experiment: p27^Kip1 antisense oligonucleotide treatment of neomycin-lesioned organ of Corti explants, BrdU immunocytochemistry. Format: cell-based, mouse. The method, then: (§1) To test whether inhibition of the p27^Kip1 gene product in p27^Kip1 +/+ cochlea would allow non-mitotic supporting cells to proliferate, wild type organ of Corti explants (P7-P10, at age of hearing onset) were treated with p27^Kip1 antisense oligonucleotides (ONs). Explant cultures were established by dissecting the organ of Corti from the cochlea, removing the tectorial membrane and adhering the organ of Corti to a glass slide coated with Cell-tak and maintained at 37° C. in a 5% CO2 environment. The explant was then exposed to an ototoxic antibiotic (1 mM neomycin sulfate) for 48 h which killed >95% of the HCs (Kil, J., et al., ARO abs. 21:672 (1998)). The neomycin containing media was then removed and p27^Kip1 antisense oligonucleotides (Ons) (40 nM) were administered using a cationic lipid (lipofection) for a period of 24-48 hr. Some of these living cultures were examined under fluorescence to detect the presence of FITC conjugated antisense ON.
FITC-positive supporting cells were detected in 18-24 h and increased in number and fluorescent intensity between 24-48 h. Cultures were aldehyde fixed and processed for BrdU immunocytochemistry. […] BrdU-positive doublets appeared in antisense ON treated cultures that were recovered for an additional 24 hr without antisense ONs. […] Lipofection-only treated cultures contained very low levels of BrdU-labeled supporting cells.

Another data set relates to auditory function. As to the kind of experiment: Auditory brainstem response (ABR) threshold after amikacin sulfate treatment. Format: in vivo, mice. To be noted: p27 heterozygotes, two and four weeks after amikacin sulfate treatment; p<0.001. The procedure: Experimental animals were treated the same as the mice described in the experiments reported in Table 2 herein, except that, in the present example, there was an additional recovery time point at four weeks after amikacin treatment. Auditory function was measured using the auditory brainstem response (ABR) using subcutaneous recording electrodes placed on three head points in Isofluorane anesthetized mice. The sound intensity threshold was determined by presenting single frequencies as different sound intensities (intensity measured in decibels). The higher the tone intensity that is required to elicit the ABR, the higher the auditory threshold, i.e., the worse the auditory function.

In the next data set the test system is organ of Corti. As to the kind of experiment: BrdU-labeled cells in the organ of Corti of p27^Kip1 +/+, +/−, −/− mice after amikacin lesioning. Format: in vivo. Conditions: for number of BrdU labeled cells in the organ of Corti: 1000 μm length of sensory epithelium, apical half of cochlea, ±s.d. The method, then:
To determine whether auditory hair cells were being produced after the onset of hearing at postnatal day 10, two-week old p27^Kip1 −/−, +/−, +/+ mice (P10-12) received three daily systemic injections of bromodeoxyuridine (BrdU; 30 mg/kg/s.c), a nucleotide analog which is incorporated into proliferating cells during S phase. Mice were then permitted to recover for two-days or two-weeks without further injections. BrdU positive HCs were identified with immunocytochemistry using light and fluorescence microscopy. Cochlea were also labeled with antibodies against myosin-VI and myosin-VIIa. In two-week old p27^Kip1 −/− cochlea that were recovered for 2d after the last injection, no BrdU/myosin-VIIa positive cells were observed among the BrdU positive cells. However, in four-week old p27^Kip1 −/− cochlea that were recovered for 14 days after the last injection, BrdU/myosin-VIIa positive HCs were observed. Most of those double labeled were IHCs. This qualitative finding is similar to our quantitative assessments of IHCs and OHCs numbers. p27^Kip1 +/−, +/+ mice were completely devoid of BrdU positive cells at 2d and 14d of recovery. […] Counts were performed on a 1000 μm length of sensory epithelium taken in the apical half of the cochlea (±s.d.). Proliferation in the BrdU groups were compared across +/+, +/−and −/−. Proliferation in the BrdU/Amikacin group was compared with that in the BrdU only group of the same genotype. Statistical significance was determined using ANOVA.
To ascertain whether auditory HCs could be regenerated, HCs were lesioned using systemic injections of amikacin sulfate (P7-P12) and then injected with BrdU (P10-12). Mice were sacrificed either 2 d or 14 d after the last injection. The effects of an amikacin lesioning were at least two-fold. First, in both p27^Kip1 −/− and +/− mice, the number of BrdU positive cells increased following amikacin/BrdU vs BrdU alone treatment. […] Evidence of HC regeneration was confirmed by sectioning the labeled cochlea. Second, a greater number of BrdU positive HCs were observed following amikacin lesioning in p27^Kip1 −/− cochlea. The majority of the BrdU positive HCs appeared in the regions of the cochlea where the amikacin sulfate had injured or killed HCs (in the basal half of the cochlea).

Data set [2] has as its system utricular, saccular and cristae sensory epithelium. As to the kind of experiment: BrdU-labeled cells in the vestibular organs of p27^Kip1 mice after amikacin/BrdU. Format: in vivo. To be noted: for number of BrdU labeled cells, utricle: BrdU/Amikacin (500 mg/kg/d s.c., P7-P12). The procedure:
To determine whether p27^Kip1 plays a similar role in the peripheral vestibular system, the proliferative capacity of the utricle, saccule and cristae of p27^Kip1 +/−, and +/+ mice was examined. Mice (P7-P12) received systemic injections of amikacin sulfate (500 mg/kg/d/s.c) for six consecutive days that were combined with injections of the replication marker, bromodeoxyuridine (BrdU; 30 mg/kg/d/s.c) between P10-P12. Mice were also injected with BrdU alone in a similar fashion. Mice were then sacrificed 14 d later and the vestibular sensory organs were fixed, dissected and processed for BrdU immunocytochemistry. BrdU positive nuclei were counted from whole mounts using light microscopy and Nomarski optics. Selected organs were further processed for cross section analysis.
BrdU positive HCs were also observed in both otolithic organs. Most of these regenerated HC appeared as type I HCs in that they were contacted by a calyx. […] In p27^Kip1 +/+ mice, no BrdU positive nuclei in either the saccule or utricle were observed after amikacin/BrdU or BrdU alone. […] Counts were performed from whole utricular, saccular and cristae sensory epithelium (±s.d.). In the BrdU group, statistical significance was determined by comparing proliferation levels in the same sensory organ across +/+, +/− and −/−. In the BrdU/Amikacin group, statistical significance was determined by comparing proliferation levels in the same sensory organ of the same genotype. Statistical significance was determined using ANOVA.

For another data set, the system named is guinea pig JH4 cells. As to the kind of experiment: Reversal of serum-deprivation growth arrest, BrdU labeling. Format: cell-based. The source says:
Cells were counted under fluorescence microscopy. The combination of lipids and p27^kip1. AS reversed growth arrest to 40% of that seen with 10% FBS stimulation (p<0.0001). (+) FBS; (−) no FBS; (AS) antisense oligonucleotide; (lipid) lipofection.
Cultures of cell lines were established that are responsive to p27^Kip1 antisense oligonucleotides (ON) during the period of serum withdrawal and growth arrest. These cultures include a guinea pig fibroblast line (JH4). Lipofection of the 16 mer antisense ON (having the nucleic acid sequence set forth in SEQ ID NO:20) reversed growth arrest in the JH4 cell line to over 40% of normal.
For orientation: Dividing cells build labelled thymidine or BrdU into new DNA.

The test system of data set [3] is hair cells of organ of Corti explant. As to the kind of experiment: Hair cell lesioning of organ of Corti cultures with neomycin. It counts as cell-based, mouse. To be noted: 1 mM neomycin, organotypic cultures, 48 h, calbindin immunoreactivity and cross-section analysis. The procedure:
as §1, with “The neomycin containing media was then removed and p27^Kip1 antisense oligonucleotides (Ons) (40 nM) were administered using a cationic lipid (lipofection) for a period of 24-48 hr.” left out, “ON. […]” for “ON.”
An aminoglycoside antibiotic lesion of the hair-cells is then be combined with subsequent lipofection. […] Unlike cultures derived from neonatal mice, the two-week old mouse which has developed auditory function is more easily affected by this concentration of neomycin resulting in a greater than 95% loss of hair-cells as determined by calbindin immunoreactivities and plastic cross-section analysis. […] This may necessitate the use of a commercially available GFP antibody (Clonetech) to enhance the fluorescence of lipofected cells.

The test system is the same in data set [4]. Conditions: 1 mM neomycin sulfate for 48 h; P7-P10 wild type explants; cited from earlier work.
Setting [5] is: p27^Kip1 +/+ mice, BrdU/Amikacin, 14 d recovery, whole sensory epithelium, ±s.d.
[6] abbreviates: p27^Kip1 +/− mice, BrdU/Amikacin, 14 d recovery, whole sensory epithelium, ±s.d.
[7] abbreviates: p27^Kip1 −/− mice, BrdU/Amikacin, 14 d recovery, whole sensory epithelium, ±s.d.

Where only a bound is given, the exact number is not on record here.

For “antisense ON: p27^Kip1 antisense oligonucleotides administered using a cationic lipid (lipofection) to organ of Corti explants (antisense TGGCTCTCCTGCGCC; FITC conjugated, delivered with cationic lipid, further chemistry not given here)”, the BrdU-positive supporting cells entry in data set [1] (40 nM antisense ON by lipofection, after 24 h of treatment, after 1 mM neomycin 48 h) was “appeared in most cochlear cultures”. The “time at which FITC-positive supporting cells were detected” value in data set [1] (FITC conjugated antisense ON, lipofection, living cultures under fluorescence) fell in the range of 18 to 24 h. Also, in data set [1] (antisense ON treated cultures recovered for an additional 24 hr without antisense ONs), the BrdU-positive doublets entry was “appeared”.
In the case of `NCC[C@H](O)C(=O)N[C@@H]1C[C@H](N)[C@@H](O[C@H]2O[C@H](CN)[C@@H](O)[C@H](O)[C@H]2O)[C@H](O)[C@H]1O[C@H]1O[C@H](CO)[C@@H](O)[C@H](N)[C@H]1O.O=S(=O)(O)O.O=S(=O)(O)O` [Amikacin, amikacin sulfate], the “auditory improvement (ABR threshold)” value in the data set with auditory function is “five out of eight”. The “number of BrdU positive cells following amikacin/BrdU vs BrdU alone treatment” value in the data set on organ of Corti (cochlea of both p27^Kip1 −/− and +/− mice) is reported as “increased”. Besides, the “number of BrdU labeled cells in the organ of Corti” value in the data set on organ of Corti (p27^Kip1 +/+ mice, BrdU/Amikacin + 2d recovery) turned out to be 0.0 ± 0.0; in the data set on organ of Corti (p27^Kip1 +/+ mice, BrdU/Amikacin + 14d recovery), 0.0 ± 0.0; with organ of Corti (p27^Kip1 +/− mice, BrdU/Amikacin + 2d recovery) it was 4.7 ± 7.6; in the data set on organ of Corti (p27^Kip1 +/− mice, BrdU/Amikacin + 14d recovery), 10.5 ± 12.0; in the data set on organ of Corti (p27^Kip1 −/− mice, BrdU/Amikacin + 2d recovery), 96.3 ± 9.5; in the data set on organ of Corti (p27^Kip1 −/− mice, BrdU/Amikacin + 14d recovery), 137.4 ± 17.0. Further, in the data set with organ of Corti (p27 heterozygotes of Table 2, amikacin treated), the “p27 heterozygotes showing evidence of inner cell proliferative regeneration (BrdU-labeling and morphologic criteria)” value is listed as “five out of ten”. Moreover, the “BrdU positive cells in wt cochlea” value in the data set with organ of Corti (wt cochlea following amikacin/BrdU) is reported as “No BrdU positive cells were observed”. Further, the “number of BrdU labeled cells, utricle” value in data set [2] (p27^Kip1 +/+ mice, 14 d recovery, whole sensory epithelium, ±s.d.) is 0.0 ± 0.0; in data set [2] (p27^Kip1 +/− mice, 14 d recovery, whole sensory epithelium, ±s.d.), 0.4 ± 0.7; in data set [2] (p27^Kip1 −/− mice, 14 d recovery, whole sensory epithelium, ±s.d.), 45.5 ± 19.2. The “number of BrdU labeled cells, cristae” value in data set [2] (setting [5]) and in data set [2] (setting [6]) was 0.0 ± 0.0 each time. The “number of BrdU labeled cells, saccule” value is listed as 0.0 ± 0.0 in data set [2] (setting [5]), 1.6 ± 1.9 in data set [2] (setting [6]) and 51.8 ± 15.3 in data set [2] (setting [7]). The “proliferation in the saccule or utricle after combined amikacin/BrdU treatment” value in data set [2] (p27^Kip1 +/− mice) is on record as “a very low level of proliferation was induced”. Further, in data set [2] (setting [7]), the “number of BrdU labeled cells, cristae (sub-head printed as utricle)” value came out at 0.0 ± 0.0. Moreover, the “increase in the number of BrdU positive cells after combined amikacin/BrdU treatment” value in data set [2] (p27^Kip1 −/− mice, saccule and utricle (both organs), versus BrdU only) worked out at 40 fold.
Take “16 mer antisense ON: 16 mer p27^Kip1 antisense ON having the nucleic acid sequence set forth in SEQ ID NO:20 (antisense TGGCTCTCCTGCGCC; listed as DNA, chemistry not given here)”: in the data set with guinea pig JH4 cells (lipofection, serum withdrawal), the “reversal of growth arrest” value is “over 40 % of normal”. Besides, the “reversal of growth arrest (BrdU-labeled cells)” value with guinea pig JH4 cells (serum deprivation 24 hours, BrdU pulse last 4 hours, combination of lipids and AS, p<0.0001) is reported as 40 % of that seen with 10% FBS stimulation.
For the molecule neomycin sulfate, the “loss of hair cells” value in data set [3] is “greater than 95%”; in data set [3] (listed as neomycin), 95%. Moreover, the HCs killed in data set [4] was above 95%.
